The conditions of data set [1]: cited from earlier work.
The nature of data set [2]: In vitro permeation of metronidazole through epidermal membrane in Franz type diffusion cells after amino acid pre-treatment. The data set is classed as in vitro ADME, Human. Particulars: maximal enhancement of the drug's permeation by amino acid pre-treatment. The protocol: (§1) Acyclovir (ACV), metronidazole and diclofenac diethylamine (DDEA) were analysed using HPLC, using of a Waters Alliance Separations Module and Waters detector. The temperature of the column and samples were maintained at 45±2° C. and 5.0±2° C., respectively. A Kinetix™ C-18 (Phenomenex, USA) column (150 mm×4.6 mm 5 μm particle size) with a guard column (Phenomenex USA, C-18 4.0×3.0 mm) was employed as the stationary phase. The mobile phase was three part; mobile phase A, water; mobile phase B, methanol; and mobile phase C, 10 mM ammonium phosphate buffer pH 2.5. The mobile phase was run using a gradient flow (Table 2) with a flow rate of 0.8 mL/min. Samples were run for 12 minutes with an injection volume of 10 μL. Acyclovir, metronidazole and DDEA were processed at a wavelength of 276 nm, with approximate retention times of 4.7, 6.5, and 8.7 min, respectively. Calibration curves were constructed from a series of standards prepared by serial dilution in conjunction with separately prepared quality controls. […] Data were recorded and analysed using Empower Pro^3 Software. […]
(§2) Three experiments were performed, one for each API (Acyclovir, metronidazole and DDEA). […] The integrity of the epidermal membrane was assessed using electrical resistance to ensure the epidermal membrane was intact. […] Samples were analysed using HPLC and the level of each API that had permeated was quantified.

Data set [3] can be described thus: In vitro permeation of diclofenac diethylamine (DDEA) through epidermal membrane in Franz type diffusion cells after amino acid pre-treatment. The data set is classed as in vitro ADME, Human. Particulars: maximal enhancement of the drug's permeation by amino acid pre-treatment. As to the method:
as §1, §2

The nature of data set [4]: In vitro permeation of Acyclovir through epidermal membrane in Franz type diffusion cells after amino acid pre-treatment. It counts as in vitro ADME, Human. As to conditions: maximal enhancement of the drug's permeation by amino acid pre-treatment. The protocol: as §1, §2

As a reminder, the Log P is a log measure of how a compound divides between an organic and an aqueous phase. `Cc1ncc([N+](=O)[O-])n1CCO` [Metronidazole]: the “Log P” value in data set [1] is reported as −0.02. For the same compound, the “ER (drug absorption enhancement factor)” value in data set [2] amounted to 15. With `O=C(O)Cc1ccccc1Nc1c(Cl)cccc1Cl` [Diclofenac diethylamine], the “Log P” value in data set [1] is recorded as 0.85. Also, in data set [3], the “ER (drug absorption enhancement factor)” value came to 19. Take `Nc1nc2c(ncn2COCCO)c(=O)[nH]1` [ACV, Acyclovir]: the “ER (drug absorption enhancement factor)” value in data set [4] came out at 12.

The record behind these values is patent publication US20150328109A1, “DERMAL COMPOSITIONS CONTAINING UNNATURAL HYGROSCOPIC AMINO ACIDS” (MEDPHARM LIMITED, priority 2012, published 2015).
